{
  "source": "paper PMC8831520",
  "about": "“Small molecule SWELL1 complex induction improves glycemic control and nonalcoholic fatty liver disease in murine Type 2 diabetes” (Nature Communications, 2022)",
  "key": {"[1]": {"system": "cadaveric human islets", "assay": "GSIS perifusion of palmitate-treated human islets", "assay_type": "cell-based", "settings": "10 µM for 4 days prior to and during 1 mM palmitate 16 h, washed off during GSIS", "method": "Cadaveric human islets were obtained from the Integrated Islet Distribution Program (IIDP), Prodo Laboratories, and the Alberta Diabetes Institute Islet Core. The human islets obtained from the Integrated Islet Distribution program and Prodo laboratories were exempt from Institutional Review Board approval under 45 CRR 46.101 (b) category (4) and 45 CFR 46.102 h, respectively. Human islets were obtained from the Alberta Diabetes Institute IsletCore at the University of Alberta in Edmonton (http://www.bcell.org/adi-isletcore.html) with the assistance of the Human Organ Procurement and Exchange (HOPE) program, Trillium Gift of Life Network (TGLN), and other Canadian organ procurement organizations. Islet isolation was approved by the Human Research Ethics Board at the University of Alberta (Pro00013094). All donors’ families gave informed consent for the use of pancreatic tissue in research. Human islets were cultured in RPMI media with 2% FBS overnight. […] Insulin concentrations were further determined using a commercially available ELISA kit (Mercodia). The area under the curve (AUC) for the high-glucose-induced insulin release was calculated for time points between 50 to 74/84 min. At the completion of the experiment, islets were further lysed by the addition of RIPA buffer and the amount of insulin was detected by ELISA."}, "[2]": {"assay": "Tolerability of chronic i.p. dosing", "assay_type": "in vivo, mouse", "settings": "daily i.p. injections for up to 8 weeks", "method": "All compounds were dissolved in Kolliphor® EL (Sigma, #C5135)."}, "[3]": {"system": "ICl,SWELL", "design": "method as in PMID 11724753", "settings": "cited from earlier work"}, "[4]": {"system": "T2D KKAy mice", "assay": "Euglycemic hyperinsulinemic clamp with tracers", "assay_type": "in vivo, mouse", "method": "Sterile silicone catheters (Dow-Corning) were placed into the jugular vein of mice under isoflurane anesthesia. The placed catheter was flushed with 200 U/mL heparin in saline and the free end of the catheter was directed subcutaneously via a blunted 14-gauge sterile needle and connected to a small tubing device that exited through the back of the animal. […] Hyperinsulinemic euglycemic clamps were performed on day 8 post-surgery on unrestrained, conscious mice as described elsewhere[82],[83], with some modifications. Mice were fasted for 6 h at which time insulin and glucose infusion were initiated (time 0). At 80 min prior to time 0 basal sampling was conducted, where whole-body glucose flux was traced by infusion of 0.05 μCi/min D-[3-^3H]-glucose (Perkin Elmer), after a priming 5 μCi bolus for 1 min. After the basal period, starting at time 0 D-[3-^3H]-glucose was continuously infused at the rate of 0.2 μCi/min and the infusion of insulin (Humulin, Eli Lilly) was initiated with a bolus of 80 mU/kg/min (10 µl volume for 1 min) then followed by continuous infusion of insulin at the dose of 8 mU/kg/min throughout the assay. Fifty percent dextrose (Hospira) was infused at variable rates (GIR) starting at the same time as the initiation of insulin infusion to maintain euglycemia at the targeted level of 150 mg/dL (8.3 mM). Blood glucose (BG) measurements were taken every ten minutes via tail vein sampling using a Contour glucometer (Bayer). After the mouse reached stable BG and GIR (typically, after 75 min since starting the insulin infusion; for some mice, a long time was required to achieve steady-state) a single bolus of 12 μCi of [1-^14C]-2-deoxy-D-glucose (Perkin Elmer) in 96 μl of saline was administered. Plasma samples (collected from centrifuged blood) for determination of tracers enrichment, glucose level, and insulin concentration were obtained at times −80, −20, −10, 0, and every 10 min starting at 80 min post-insulin (5 min after [1-^14C]-2-deoxy-D-glucose bolus was administered) until the conclusion of the assay at 140 min. Tissue samples were then collected from mice under isofluorane anesthesia from organs of interest (e.g., liver, heart, kidney, white adipose tissue, brown adipose tissue, gastrocnemius, soleus, etc.) for determination of 1-^14C]-2-deoxy-D-glucose tracer uptake. Plasma and tissue samples were processed as described previously. Briefly, plasma samples were deproteinized with Ba(OH)2 and ZnSO4 and dried to eliminate tritiated water. The glucose turnover rate (mg/kg-min) was calculated as the rate of tracer infusion (dpm/min) divided by the corrected plasma glucose specific activity (dpm/mg) per kg body weight of the mouse. Fluctuations from steady-state were accounted for by the use of Steele’s model. Plasma glucose was measured using the Analox GMD9 system (Analox Technologies).\nTissue samples (~30 mg each) were homogenized in 750 µl of 0.5% perchloric acid, neutralized with 10 M KOH, and centrifuged. The supernatant was then used for first measuring the abundance of total [1-^14C] signal (derived from both 1-^14C -2-deoxy-D-glucose, 1-^14C -2-deoxy-D-glucose 6 phosphate) and, following a precipitation step with 0.3 N […] and 0.3 N ZnSO4, for the measuring of non-phosphorylated 1-^14C -2-deoxy-D-glucose. Glycogen was isolated by ethanol precipitation from 30% KOH tissue lysates, as described. Insulin levels in plasma at T0 and T140 were measured using a Stellux ELISA rodent insulin kit (Alpco)."}},
  "data": [
    {"smiles": "CCCCC1(C2CCCC2)Cc2cc(OCCCC(=O)O)c(Cl)c(Cl)c2C1=O", "note": "(centres unmarked) [SN-401, 4-((2-butyl-6,7-dichloro-2-cyclopentyl-1-oxo-2,3-dihydro-1H-inden-5-yl)oxy)butanoic acid]", "values": [
      {"measurement": "glucose-stimulated insulin secretion after palmitate", "setting": "[1]", "value": "normalized"},
      {"measurement": "tolerability", "setting": "[2]", "value": "no overt signs of toxicity"},
      {"measurement": "IC50", "setting": "[3]", "value": "~5", "unit": "µM"},
      {"measurement": "glucose incorporation into glycogen in liver, adipose, and skeletal muscle", "setting": "[4]; KKAy mice", "value": "markedly increased"},
      {"measurement": "insulin-stimulated 2-DG uptake into iWAT, gWAT and myocardium", "setting": "[4]; KKAy mice", "value": "enhanced"},
      {"measurement": "glucose-infusion rate (GIR) to maintain euglycemia", "setting": "[4]; KKAy mice, 5 mg/kg i.p. 4 days, vs vehicle", "value": "higher"},
      {"measurement": "reduction of rate of glucose appearance (Ra)", "setting": "[4]; baseline (Basal)", "value": 40, "unit": "%"},
      {"measurement": "suppression of rate of glucose appearance (Ra)", "setting": "[4]; during glucose/insulin infusion (Clamp)", "value": 75, "unit": "%"}
    ]}
  ]
}
